The values below are quoted from earlier work in paper PMC4877185 (Molecular imaging and biology : MIB : the official …, 2016).

The term EC50 denotes the concentration that produces a half-maximal response.

Series [1] relates to GLP-1R. The settings on record: read-out: cAMP EC50; unlabeled conjugates, GLP-1R agonist.
For series [2], the system named is GLP-1R. The settings on record: greater affinity than truncated antagonist exendin-(9–39)-amide.

In the case of DO3A-VS-Cys^40-exendin-4, the concentration for a half-maximal effect (EC50) in the series with GLP-1R [1] was 0.027 nM.
Consider Exendin-4, for which the “Binding affinity for GLP-1R relative to exendin-(9–39)-amide” value in the series on GLP-1R [2] is roughly 10 fold.
